Test results from patent US20210330611A1, “THERAPY FOR NEUROLOGICAL DISEASES/DISORDERS” (priority 2020, published 2021).
“And” between values parts separate entries of the source, which are not always exact repeats. Identical values can stand only once. Like-named read-outs stand apart in the source and are kept apart here.

Columns and labels:
[1] = tested on: fibrin-induced microglia activation; experiment: Image-based assay of fibrin-induced microglia activation (HTS and dose response); format: cell-based, rat; details: for inhibition at 10 µM: Rattus norvegicus, Microglia, read-out: Fibrin % inhibition
[2] = tested on: LPS-induced microglia activation; experiment: Image-based assay of LPS-induced microglia activation (HTS and dose response); format: cell-based, rat; details: for inhibition at 10 µM: Rattus norvegicus, Microglia, read-out: LPS % inhibition
[3] = tested on: fibrin- and LPS-induced microglia activation; experiment: cells; format: cell-based, rat
primary rat microglia [4] = tested on: primary rat microglia;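 on Fibrin % cell toxicity: share of dead cells sized under 150 µm2 at 10 µM in fibrin-stimulated microglia HTS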
primary rat microglia [5] = tested on: primary rat microglia; remark: listed apart in the source;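 on Fibrin % cell toxicity: share of dead cells sized under 150 µm2 at 10 µM in fibrin-stimulated microglia HTS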
[6] = primary microglia HTS, fibrin stimulation, compounds at 10 μM
[7] = primary microglia HTS, LPS stimulation, compounds at 10 μM
[8] = quadrant by fibrin and LPS inhibition, HTS at 10 μM
[9] = primary microglia HTS, fibrin stimulation, increased cell size (>800 μm^2) as marker of activation
[10] = 48 h, primary microglia HTS, LPS stimulation, increased cell size (>800 μm^2) as marker of activation

| Compound | Quadrant (FIG. 5b) [3] | Fibrin % cell toxicity (primary rat microglia [4]) [%] | LPS % cell toxicity (primary rat microglia [5]) [%] | Quadrant (FIG. 5b) [3, 8] | Fibrin % cell toxicity (primary rat microglia [4]; rat) [%] | LPS % cell toxicity (primary rat microglia [5]; rat) [%] | also measured |
| --- | --- | --- | --- | --- | --- | --- | --- |
| O=CCc1ccc(-c2ccccc2)cc1 | Q4 | 0 | 0 | – | – | – | Fibrin % inhibition ([1]; 10 µM): −26%; LPS % inhibition ([2]; 10 µM): 7% |
| CN(C)CCCN1c2ccccc2Sc2ccc(Cl)cc21.Cl | Q4 | 2 | 1 | – | – | – | Fibrin % inhibition ([1]; 10 µM): 9%; LPS % inhibition ([2]; 10 µM): 25% |
| C#CCN(C)CCCOc1ccc(Cl)cc1Cl.Cl | Q4 | 0 | 0 | – | – | – | Fibrin % inhibition ([1]; 10 µM): −28%; LPS % inhibition ([2]; 10 µM): 6% |
| O=P1(N(CCCl)CCCl)NCCCO1 (stereo not drawn) | Q4 | 0 | 0 | – | – | – | Fibrin % inhibition ([1]; 10 µM): −15%; LPS % inhibition ([2]; 10 µM): 12% |
| N[C@@H]1C[C@H]1c1ccccc1 (racemic) [Tranylcypromine] | Q4 | 1 | 0 | – | – | – | Fibrin % inhibition ([1]; 10 µM): 5%; LPS % inhibition ([2]; 10 µM): −5% |
| OCCc1ccccc1 [2-Phenyl-Ethanol] | – | – | – | Q4 | 1 | 0 | inhibition at 10 µM [1, 6]: -6%; inhibition at 10 µM [2, 7]: 15% |
| O=c1ccc2ccccc2o1 [2H-1-BENZOPYRAN-2-ONE] | Q4 | 0 | 0 | – | – | – | Fibrin % inhibition ([1]; 10 µM): −35%; LPS % inhibition ([2]; 10 µM): 13% |
| Nc1ncn([C@@H]2O[C@H](CO)[C@@H](O)[C@H]2O)c(=O)n1 [5-azacytidine, Azacitidine] | – | 1 | 0 | Q4 | – | – | Fibrin % inhibition [1, 6]: 9%; LPS % inhibition [2, 7]: −7% |
| C[C@H]1O[C@@H](n2cc(F)c(=O)[nH]c2=O)[C@H](O)[C@@H]1O [5-fluoro-5′-deoxyuridine, Doxifluridine] | – | 1 | 0 | Q4 | – | – | Fibrin % inhibition [1, 6]: −27%; LPS % inhibition [2, 7]: 9% |
| Cc1cc(=O)oc2cc(O)ccc12 [7-hydroxy-4-methyl-2H-chromen-2-one] | – | – | – | Q4 | 0 | 0 | inhibition at 10 µM [1, 6]: 12%; inhibition at 10 µM [2, 7]: 4% |
| CCCC(=O)Nc1ccc(OCC(O)CNC(C)C)c(C(C)=O)c1 (stereo not drawn) [Acebutolol] | – | – | – | Q4 | 1 | 0 | inhibition at 10 µM [1, 6]: -11%; inhibition at 10 µM [2, 7]: 19% |
| CC(=O)Nc1ccc(S(=O)(=O)c2ccc(NC(C)=O)cc2)cc1 [Acedapsone] | Q4 | – | – | – | 0 | 0 | inhibition at 10 µM [1]: 0%; inhibition at 10 µM [2]: 4% |
| CC1=CC(=O)NS(=O)(=O)O1 [Acesulfame Potassium] | Q4 | – | – | – | 0 | 0 | inhibition at 10 µM [1]: -3%; inhibition at 10 µM [2]: 16% |
| CC(=O)Nc1ccc(O)cc1 [Acetaminophen] | – | – | – | – | 0 | 0 | inhibition at 10 µM [1]: 14%; inhibition at 10 µM [2]: 22% |
| CC(=O)Nc1ccccc1 [Acetanilide] | Q4 | – | – | – | 0 | 0 | inhibition at 10 µM [1]: -31%; inhibition at 10 µM [2]: 9% |
| CC(=O)Nc1nnc(S(N)(=O)=O)s1 [Acetazolamide] | Q4 | – | – | – | 0 | 1 | inhibition at 10 µM [1]: -12%; inhibition at 10 µM [2]: 4% |

| Compound | Quadrant (FIG. 5b) [3] | Fibrin % cell toxicity (primary rat microglia [4]) [%] | LPS % cell toxicity (primary rat microglia [5]) [%] | Quadrant (FIG. 5b) [3, 8] | Fibrin % cell toxicity (primary rat microglia [4]; rat) [%] | LPS % cell toxicity (primary rat microglia [5]; rat) [%] | also measured |
| --- | --- | --- | --- | --- | --- | --- | --- |
| CC(=O)c1ccc(S(=O)(=O)NC(=O)NC2CCCCC2)cc1 [Acetohexamide] | – | – | – | Q4 | 1 | 0 | inhibition at 10 µM [1, 6]: 12%; inhibition at 10 µM [2, 7]: 14% |
| CC(=O)OCC[N+](C)(C)C [Acetylcholine] | – | – | – | Q4 | 0 | 0 | inhibition at 10 µM [1, 6]: -39%; inhibition at 10 µM [2, 7]: 9% |
| CC[C@H]1[C@@H]2C[C@H]3[C@@H]4N(C)c5ccccc5[C@]45C[C@@H]([C@H]2[C@H]5O)N3[C@@H]1O [Ajmaline] | – | – | – | Q4 | 1 | 0 | inhibition at 10 µM [1, 6]: -6%; inhibition at 10 µM [2, 7]: 13% |
| Oc1ncnc2[nH]ncc12 [Allopurinol] | – | – | – | Q4 | 1 | 0 | inhibition at 10 µM [1, 6]: -17%; inhibition at 10 µM [2, 7]: 16% |
| C=C1CC[C@H](O)C/C1=C/C=C1\CCC[C@]2(C)[C@@H]([C@H](C)CCCC(C)C)CC[C@@H]12 [Cholecalciferol] | – | – | – | – | 1 | 0 | Fibrin % inhibition ([1]; primary HTS, 10 μM, fibrin-stimulated primary microglia): −10% and −17%; Quadrant (FIG. 5b) ([3]; primary HTS, 10 μM): Q4 |
| CN(C)CCC=C1c2ccccc2COc2ccccc21 [Doxepin] | Q4 | – | – | – | 1 | 0 | LPS % inhibition ([2]; 10 µM): 13%; inhibition at 10 µM [2]: 16% |
| CN(C)CCCN1c2ccccc2CCc2ccccc21 [Imipramine] | – | – | – | – | 0 | 1 | inhibition at 10 µM [1, 9]: -4%; inhibition at 10 µM [2, 10]: 60% |
| N[C@@H](Cc1cc(I)c(Oc2ccc(O)c(I)c2)c(I)c1)C(=O)O [Liothyronine] | Q4 | – | – | – | 1 | 1 | inhibition at 10 µM ([2]; 48 h): 21% |
| Clc1ccc(CO/N=C(\Cn2ccnc2)c2ccc(Cl)cc2Cl)c(Cl)c1 [Oxiconazole] | Q4 | – | – | – | 1 | 1 | – |
| COc1cc2nc(N3CCN(C(=O)c4ccco4)CC3)nc(N)c2cc1OC [Prazosin] | – | – | – | – | 3 | 77 | inhibition at 10 µM [1, 9]: 43%; inhibition at 10 µM [2, 10]: 118% |
| CN[C@H]1CC[C@@H](c2ccc(Cl)c(Cl)c2)c2ccccc21 [Sertraline] | Q4 | – | – | – | 1 | 0 | – |
| Clc1ccc(CSC(Cn2ccnc2)c2ccc(Cl)cc2Cl)cc1 (stereo not drawn) [Sulconazole] | Q4 | – | – | – | 1 | 1 | – |
| Clc1ccccc1CN1CCc2sccc2C1 [Ticlopidine] | – | – | – | – | 1 | 0 | inhibition at 10 µM [1]: -13%; inhibition at 10 µM [2]: 22% |
| O=C(CCCCCCC(=O)Nc1ccccc1)NO [Vorinostat] | – | – | – | Q2 | 89 | 50 | – |
| Betamethasone sodium phosphate [reference compound] | Q2 | 2 | 3 | – | – | – | Cherry-picked Hit (Suppl. Table 7) [3]: HIT (key: HIT: Hits were defined as molecules that exhibited greater than 50% inhibition of either fibrin or LPS activation); Hit [3]: HIT (key: HIT: Hits were defined as molecules that exhibited greater than 50% inhibition of either fibrin or LPS activation) |
| Cinnarazine | Q4 | 1 | 0 | – | – | – | – |
